Results: ChEMBL document CHEMBL3593211, “Digging Deep for New Compounds from the Compass Plant, Silphium laciniatum” (J Nat Prod, 2015)
pIC50: −log10 of the molar value.

System: NCI-H460
Experiment: Cytotoxicity against human NCI-H460 cells incubated for 72 hrs by cell-titer 96 aqueous non-radioactive cell proliferation assay
Type: functional, cell-based
Conditions: NCI-H460, 72 h

Compound | pIC50
C/C(=C\CC/C=C(\C)CC/C=C(\C)CC[C@@H](O)C(C)(C)O)CC/C=C(\C)CC[C@@H](O)C(C)(C)O | 5.15
CC(=O)OCC(O)C(O)(CO)[C@@H]1C[C@@H]2[C@@]3(C)CCCC(C)(C)[C@@H]3CC[C@@]2(C)O1 (some centres undefined) | < 5.00
CC(=O)OC[C@@]1([C@@H]2C[C@@H]3[C@@]4(C)CCCC(C)(C)[C@@H]4CC[C@@]3(C)O2)O[C@@H]1CO | < 5.00
CC1(C)CCC[C@]2(C)[C@H]3C[C@@H]([C@]4(CO)O[C@@H]4CO)O[C@]3(C)CC[C@@H]12 | < 5.00
CC1(C)CC[C@]2(C(=O)O)CC[C@]3(C)C(=CC[C@@H]4[C@@]5(C)CC[C@H](O[C@@H]6O[C@H](C(=O)O)[C@@H](O)[C@H](O)[C@H]6OC6O[C@H](CO)[C@@H](O)[C@H](O)[C@H]6O)C(C)(C)[C@@H]5CC[C@]43C)[C@@H]2C1 (some centres undefined) | 5.15
CC1(C)CCC[C@]2(C)[C@H]3C[C@@H](/C(=C\CO)CO)O[C@]3(C)CC[C@@H]12 | < 5.00
CC1(C)CC[C@]2(C(=O)O)CC[C@]3(C)C(=CC[C@@H]4[C@@]5(C)CC[C@H](O[C@@H]6O[C@H](C(=O)O)[C@@H](O)[C@H](O)[C@H]6O)C(C)(C)[C@@H]5CC[C@]43C)[C@@H]2C1 | 5.22
C/C(=C\CCC/C(C)=C/C(=O)C[C@@]1(C)CC[C@@H](C(C)(C)O)O1)CC/C=C(\C)CCC(O)C(C)(C)O (some centres undefined) | 5.22
CC1(C)CCC[C@]2(C)[C@H]3C[C@@H](C(O)(CO)C(O)CO)O[C@]3(C)CC[C@@H]12 (some centres undefined) | < 5.00
CC(=O)OCC(O)(C(O)CO)[C@@H]1C[C@@H]2[C@@]3(C)CCCC(C)(C)[C@@H]3CC[C@@]2(C)O1 (some centres undefined) | < 5.00
CC1(C)CCC[C@]2(C)[C@H]3C[C@@H]([C@@]4(CO)O[C@H]4CO)O[C@]3(C)CC[C@@H]12 | < 5.00
CC(=O)OC/C(=C/CO)[C@@H]1C[C@@H]2[C@@]3(C)CCCC(C)(C)[C@@H]3CC[C@@]2(C)O1 | < 5.00
CC(=O)OC[C@]1([C@@H]2C[C@@H]3[C@@]4(C)CCCC(C)(C)[C@@H]4CC[C@@]3(C)O2)O[C@H]1CO | < 5.00
C/C(=C\CC/C=C(\C)CC/C=C(\C)CCC(O)C(C)(C)O)C/C=C/[C@@]1(C)CC[C@@H](C(C)(C)O)O1 (some centres undefined) | 5.05
